In PubChem BioAssay (NCI):
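Protocol summary: plate cells (96-well), add compound at 5 concentrations, incubate 48 h, interpolate endpoints linearly. Here, GI50 denotes the concentration required for 50% inhibition of growth. TGI: total growth inhibition.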

Key:
Experiment in all cases: NCI tumour cell line growth inhibition, 48 h
SK-MEL-5 melanoma = test system: SK-MEL-5 melanoma
SK-MEL-2 melanoma = test system: SK-MEL-2 melanoma
MALME-3M melanoma = test system: MALME-3M melanoma
NCI-H460 lung = test system: NCI-H460 lung
HT29 colon = test system: HT29 colon
UACC-62 melanoma = test system: UACC-62 melanoma
A498 renal = test system: A498 renal
MCF7 breast = test system: MCF7 breast
CCRF-CEM leukemia = test system: CCRF-CEM leukemia
SN12C renal = test system: SN12C renal
786-0 renal = test system: 786-0 renal
UACC-257 melanoma = test system: UACC-257 melanoma
HCT-116 colon = test system: HCT-116 colon
HL-60(TB) leukemia = test system: HL-60(TB) leukemia
MDA-MB-435 = test system: MDA-MB-435
RXF 393 renal = test system: RXF 393 renal
HCT-15 colon = test system: HCT-15 colon
CAKI-1 renal = test system: CAKI-1 renal
SF-268 CNS = test system: SF-268 CNS
M14 melanoma = test system: M14 melanoma
NCI-H522 lung = test system: NCI-H522 lung
COLO 205 colon = test system: COLO 205 colon
OVCAR-5 ovarian = test system: OVCAR-5 ovarian
HOP-62 NSCLC = test system: HOP-62 NSCLC
RPMI-8226 leukemia = test system: RPMI-8226 leukemia
EKVX NSCLC = test system: EKVX NSCLC
DU-145 prostate = test system: DU-145 prostate
A549 NSCLC = test system: A549 NSCLC
NCI-H226 lung = test system: NCI-H226 lung
SNB-19 CNS = test system: SNB-19 CNS
IGROV1 ovarian = test system: IGROV1 ovarian
OVCAR-4 ovarian = test system: OVCAR-4 ovarian
LOX IMVI melanoma = test system: LOX IMVI melanoma
OVCAR-8 ovarian = test system: OVCAR-8 ovarian
SK-OV-3 ovarian = test system: SK-OV-3 ovarian
ACHN renal = test system: ACHN renal
T-47D breast = test system: T-47D breast
HS 578T breast = test system: HS 578T breast
HOP-92 NSCLC = test system: HOP-92 NSCLC
UO-31 renal = test system: UO-31 renal
OVCAR-3 ovarian = test system: OVCAR-3 ovarian
SK-MEL-28 melanoma = test system: SK-MEL-28 melanoma
NCI-H23 lung = test system: NCI-H23 lung
PC-3 prostate = test system: PC-3 prostate
SNB-75 CNS = test system: SNB-75 CNS
SF-295 CNS = test system: SF-295 CNS
NCI/ADR-RES ovarian = test system: NCI/ADR-RES ovarian
BT-549 breast = test system: BT-549 breast
K-562 leukemia = test system: K-562 leukemia
SW-620 colon = test system: SW-620 colon
U251 CNS = test system: U251 CNS
KM12 colon = test system: KM12 colon
MDA-MB-231 breast = test system: MDA-MB-231 breast
TK-10 renal = test system: TK-10 renal
HCC-2998 colon = test system: HCC-2998 colon
MOLT-4 leukemia = test system: MOLT-4 leukemia

CCOC(=O)/C=C/C1=C(c2cccs2)c2ccccc2CC1
GI50 (SK-MEL-5 melanoma): 16.8 µM
TGI (SK-MEL-5 melanoma): 31.8 µM
GI50 (SK-MEL-2 melanoma): 35.9 µM
TGI (SK-MEL-2 melanoma): > 100 µM
GI50 (MALME-3M melanoma): 24.8 µM
TGI (MALME-3M melanoma): 69.7 µM
GI50 (NCI-H460 lung): 31.1 µM
TGI (NCI-H460 lung): > 100 µM
GI50 (HT29 colon): 24.4 µM
TGI (HT29 colon): 65.3 µM
GI50 (UACC-62 melanoma): 18.7 µM
TGI (UACC-62 melanoma): 40.9 µM
GI50 (A498 renal): 36.9 µM
TGI (A498 renal): > 100 µM
GI50 (MCF7 breast): 36.1 µM
TGI (MCF7 breast): > 100 µM
GI50 (CCRF-CEM leukemia): 27.3 µM
TGI (CCRF-CEM leukemia): 73.1 µM
GI50 (SN12C renal): 28.3 µM
TGI (SN12C renal): > 100 µM
GI50 (786-0 renal): 35.5 µM
TGI (786-0 renal): > 100 µM
GI50 (UACC-257 melanoma): 21.2 µM
TGI (UACC-257 melanoma): 53.7 µM
GI50 (HCT-116 colon): 25.4 µM
TGI (HCT-116 colon): 79.5 µM
GI50 (HL-60(TB) leukemia): 45 µM
TGI (HL-60(TB) leukemia): > 100 µM
GI50 (MDA-MB-435): 20.6 µM
TGI (MDA-MB-435): 51.3 µM
GI50 (RXF 393 renal): 19.5 µM
TGI (RXF 393 renal): 41.3 µM
GI50 (HCT-15 colon): 16.5 µM
TGI (HCT-15 colon): 34 µM
GI50 (CAKI-1 renal): 43.1 µM
TGI (CAKI-1 renal): > 100 µM
GI50 (SF-268 CNS): 30.2 µM
TGI (SF-268 CNS): > 100 µM
GI50 (M14 melanoma): 32 µM
TGI (M14 melanoma): > 100 µM
GI50 (NCI-H522 lung): 24.3 µM
TGI (NCI-H522 lung): 63.6 µM
GI50 (COLO 205 colon): 17 µM
TGI (COLO 205 colon): 46.3 µM
GI50 (OVCAR-5 ovarian): 35.9 µM
TGI (OVCAR-5 ovarian): > 100 µM
GI50 (HOP-62 NSCLC): 38 µM
TGI (HOP-62 NSCLC): > 100 µM
GI50 (RPMI-8226 leukemia): 21.2 µM
TGI (RPMI-8226 leukemia): 49.4 µM
GI50 (EKVX NSCLC): 27.8 µM
TGI (EKVX NSCLC): 86.7 µM
GI50 (DU-145 prostate): 22.6 µM
TGI (DU-145 prostate): 58.6 µM
GI50 (A549 NSCLC): 33.8 µM
TGI (A549 NSCLC): > 100 µM
GI50 (NCI-H226 lung): 25.4 µM
TGI (NCI-H226 lung): 70.2 µM
GI50 (SNB-19 CNS): 30.9 µM
TGI (SNB-19 CNS): > 100 µM
GI50 (IGROV1 ovarian): 26.7 µM
TGI (IGROV1 ovarian): 94.9 µM
GI50 (OVCAR-4 ovarian): 38.9 µM
TGI (OVCAR-4 ovarian): > 100 µM
GI50 (LOX IMVI melanoma): 15.9 µM
TGI (LOX IMVI melanoma): 30 µM
GI50 (OVCAR-8 ovarian): 30.5 µM
TGI (OVCAR-8 ovarian): > 100 µM
GI50 (SK-OV-3 ovarian): 31.6 µM
TGI (SK-OV-3 ovarian): > 100 µM
GI50 (ACHN renal): 17.1 µM
TGI (ACHN renal): 34.5 µM
GI50 (T-47D breast): 36.5 µM
TGI (T-47D breast): > 100 µM
GI50 (HS 578T breast): 28.5 µM
TGI (HS 578T breast): 99.1 µM
GI50 (HOP-92 NSCLC): 37.4 µM
TGI (HOP-92 NSCLC): > 100 µM
GI50 (UO-31 renal): 33.5 µM
TGI (UO-31 renal): > 100 µM
GI50 (OVCAR-3 ovarian): 29.5 µM
TGI (OVCAR-3 ovarian): > 100 µM
GI50 (SK-MEL-28 melanoma): 26.3 µM
TGI (SK-MEL-28 melanoma): 75 µM
GI50 (NCI-H23 lung): 28.8 µM
TGI (NCI-H23 lung): 89.4 µM
GI50 (PC-3 prostate): 37.1 µM
TGI (PC-3 prostate): > 100 µM
GI50 (SNB-75 CNS): 25.5 µM
TGI (SNB-75 CNS): 82.5 µM
GI50 (SF-295 CNS): 38.5 µM
TGI (SF-295 CNS): > 100 µM
GI50 (NCI/ADR-RES ovarian): 21.1 µM
TGI (NCI/ADR-RES ovarian): 55.9 µM
GI50 (BT-549 breast): 24.2 µM
TGI (BT-549 breast): 54.3 µM
GI50 (K-562 leukemia): 30.6 µM
TGI (K-562 leukemia): > 100 µM
GI50 (SW-620 colon): 31.1 µM
TGI (SW-620 colon): > 100 µM
GI50 (U251 CNS): 19.7 µM
TGI (U251 CNS): 39.6 µM
GI50 (KM12 colon): 25.6 µM
TGI (KM12 colon): 90 µM
GI50 (MDA-MB-231 breast): 20.5 µM
TGI (MDA-MB-231 breast): 64.7 µM
GI50 (TK-10 renal): 17.9 µM
TGI (TK-10 renal): 64.3 µM
GI50 (HCC-2998 colon): 28.2 µM
TGI (HCC-2998 colon): 64.7 µM

COc1ccc2c(c1)/C(=C\c1c(Cl)[nH]c3ccc(OC)cc13)C(=O)N2
TGI (SK-MEL-5 melanoma): 25.3 µM
GI50 (SK-MEL-2 melanoma): 25.8 µM
TGI (SK-MEL-2 melanoma): 62.8 µM
GI50 (MALME-3M melanoma): 21 µM
TGI (MALME-3M melanoma): 44.1 µM
GI50 (NCI-H460 lung): 50.7 µM
TGI (NCI-H460 lung): > 100 µM
GI50 (HT29 colon): 21.4 µM
TGI (HT29 colon): > 100 µM
GI50 (UACC-62 melanoma): 35.2 µM
TGI (UACC-62 melanoma): > 100 µM
GI50 (MCF7 breast): 44.9 µM
TGI (MCF7 breast): > 100 µM
GI50 (CCRF-CEM leukemia): 32.5 µM
TGI (CCRF-CEM leukemia): > 100 µM
GI50 (786-0 renal): 43.7 µM
TGI (786-0 renal): > 100 µM
GI50 (UACC-257 melanoma): 37.3 µM
TGI (UACC-257 melanoma): > 100 µM
GI50 (HCT-116 colon): 16.3 µM
TGI (HCT-116 colon): 30.6 µM
GI50 (HL-60(TB) leukemia): 26.9 µM
TGI (HL-60(TB) leukemia): 67.3 µM
GI50 (MDA-MB-435): 33.7 µM
TGI (MDA-MB-435): > 100 µM
GI50 (RXF 393 renal): > 100 µM
TGI (RXF 393 renal): > 100 µM
GI50 (HCT-15 colon): > 100 µM
TGI (HCT-15 colon): > 100 µM
GI50 (CAKI-1 renal): > 100 µM
TGI (CAKI-1 renal): > 100 µM
GI50 (SF-268 CNS): 61.2 µM
TGI (SF-268 CNS): > 100 µM
GI50 (M14 melanoma): 21.9 µM
TGI (M14 melanoma): 39.8 µM
GI50 (NCI-H522 lung): 26.8 µM
TGI (NCI-H522 lung): 74.4 µM
GI50 (COLO 205 colon): 18.9 µM
TGI (COLO 205 colon): 39.8 µM
GI50 (OVCAR-5 ovarian): 77.3 µM
TGI (OVCAR-5 ovarian): > 100 µM
GI50 (HOP-62 NSCLC): 32.6 µM
TGI (HOP-62 NSCLC): 95.2 µM
GI50 (RPMI-8226 leukemia): 33.3 µM
TGI (RPMI-8226 leukemia): > 100 µM
GI50 (EKVX NSCLC): 84.7 µM
TGI (EKVX NSCLC): > 100 µM
GI50 (DU-145 prostate): > 100 µM
TGI (DU-145 prostate): > 100 µM
GI50 (A549 NSCLC): 65.1 µM
TGI (A549 NSCLC): > 100 µM
GI50 (NCI-H226 lung): 41.9 µM
TGI (NCI-H226 lung): > 100 µM
GI50 (SNB-19 CNS): 20.6 µM
TGI (SNB-19 CNS): 64.1 µM
GI50 (IGROV1 ovarian): 56.9 µM
TGI (IGROV1 ovarian): > 100 µM
GI50 (OVCAR-4 ovarian): 41.8 µM
TGI (OVCAR-4 ovarian): > 100 µM
GI50 (LOX IMVI melanoma): 25.8 µM
TGI (LOX IMVI melanoma): 54.3 µM
GI50 (OVCAR-8 ovarian): 34.1 µM
TGI (OVCAR-8 ovarian): > 100 µM
GI50 (SK-OV-3 ovarian): 41.9 µM
TGI (SK-OV-3 ovarian): > 100 µM
GI50 (ACHN renal): 43.3 µM
TGI (ACHN renal): > 100 µM
GI50 (T-47D breast): 13 µM
TGI (T-47D breast): 32 µM
GI50 (HS 578T breast): 29.9 µM
TGI (HS 578T breast): 81.2 µM
GI50 (HOP-92 NSCLC): 61.7 µM
TGI (HOP-92 NSCLC): > 100 µM
GI50 (UO-31 renal): 87.1 µM
TGI (UO-31 renal): > 100 µM
GI50 (OVCAR-3 ovarian): 29.4 µM
TGI (OVCAR-3 ovarian): > 100 µM
GI50 (SK-MEL-28 melanoma): 15.9 µM
TGI (SK-MEL-28 melanoma): 40.4 µM
GI50 (NCI-H23 lung): > 100 µM
TGI (NCI-H23 lung): > 100 µM
GI50 (PC-3 prostate): 48.9 µM
TGI (PC-3 prostate): > 100 µM
GI50 (MOLT-4 leukemia): 46.9 µM
TGI (MOLT-4 leukemia): > 100 µM
GI50 (SF-295 CNS): 19.9 µM
TGI (SF-295 CNS): 45.8 µM
GI50 (NCI/ADR-RES ovarian): > 100 µM
TGI (NCI/ADR-RES ovarian): > 100 µM
GI50 (BT-549 breast): 28.8 µM
TGI (BT-549 breast): > 100 µM
GI50 (SW-620 colon): 20 µM
TGI (SW-620 colon): 48.9 µM
GI50 (U251 CNS): 19.7 µM
TGI (U251 CNS): 43.8 µM
GI50 (KM12 colon): 17.5 µM
TGI (KM12 colon): 34.9 µM
GI50 (MDA-MB-231 breast): 27.8 µM
TGI (MDA-MB-231 breast): 75.2 µM
GI50 (TK-10 renal): 44 µM
TGI (TK-10 renal): > 100 µM
